Reference: BigSolDB 2.1

COc1cc2nccc(Oc3ccc(NC(=O)C4(C(=O)Nc5ccc(F)cc5)CC4)cc3)c2cc1OC.O=C(O)C[C@H](O)C(=O)O
solubility (mole fraction) (in DMSO, 298.2 K): 0.0332
solubility (mole fraction) (in DMSO, 303.2 K): 0.0353
solubility (mole fraction) (in DMSO, 308.2 K): 0.0376
solubility (mole fraction) (in DMSO, 313.2 K): 0.0404
solubility (mole fraction) (in DMSO, 318.2 K): 0.0435
solubility (mole fraction) (in PEG-400, 298.2 K): 0.00354
solubility (mole fraction) (in PEG-400, 303.2 K): 0.00538
solubility (mole fraction) (in PEG-400, 308.2 K): 0.00749
solubility (mole fraction) (in PEG-400, 313.2 K): 0.0105
solubility (mole fraction) (in PEG-400, 318.2 K): 0.0142
solubility (mole fraction) (in ethanol, 298.2 K): 0.000391
solubility (mole fraction) (in ethanol, 303.2 K): 0.000507
solubility (mole fraction) (in ethanol, 308.2 K): 0.000724
solubility (mole fraction) (in ethanol, 313.2 K): 0.000977
solubility (mole fraction) (in ethanol, 318.2 K): 0.00127
solubility (mole fraction) (in ethyl acetate, 298.2 K): 8.8e-05
solubility (mole fraction) (in ethyl acetate, 303.2 K): 0.000135
solubility (mole fraction) (in ethyl acetate, 308.2 K): 0.000187
solubility (mole fraction) (in ethyl acetate, 313.2 K): 0.000277
solubility (mole fraction) (in ethyl acetate, 318.2 K): 0.000415
solubility (mole fraction) (in ethylene glycol, 298.2 K): 0.000426
solubility (mole fraction) (in ethylene glycol, 303.2 K): 0.000605
solubility (mole fraction) (in ethylene glycol, 308.2 K): 0.000839
solubility (mole fraction) (in ethylene glycol, 313.2 K): 0.00109
solubility (mole fraction) (in ethylene glycol, 318.2 K): 0.00138
solubility (mole fraction) (in isopropanol, 298.2 K): 0.000529
solubility (mole fraction) (in isopropanol, 303.2 K): 0.00068
solubility (mole fraction) (in isopropanol, 308.2 K): 0.000944
solubility (mole fraction) (in isopropanol, 313.2 K): 0.0013
solubility (mole fraction) (in isopropanol, 318.2 K): 0.00169
solubility (mole fraction) (in methanol, 298.2 K): 0.000169
solubility (mole fraction) (in methanol, 303.2 K): 0.000262
solubility (mole fraction) (in methanol, 308.2 K): 0.000372
solubility (mole fraction) (in methanol, 313.2 K): 0.000503
solubility (mole fraction) (in methanol, 318.2 K): 0.000705
solubility (mole fraction) (in n-butanol, 298.2 K): 0.000675
solubility (mole fraction) (in n-butanol, 303.2 K): 0.000932
solubility (mole fraction) (in n-butanol, 308.2 K): 0.00128
solubility (mole fraction) (in n-butanol, 313.2 K): 0.00166
solubility (mole fraction) (in n-butanol, 318.2 K): 0.00215
solubility (mole fraction) (in propylene glycol, 298.2 K): 0.000715
solubility (mole fraction) (in propylene glycol, 303.2 K): 0.00098
solubility (mole fraction) (in propylene glycol, 308.2 K): 0.00131
solubility (mole fraction) (in propylene glycol, 313.2 K): 0.00179
solubility (mole fraction) (in propylene glycol, 318.2 K): 0.00238
solubility (mole fraction) (in sec-butanol, 298.2 K): 0.000687
solubility (mole fraction) (in sec-butanol, 303.2 K): 0.000943
solubility (mole fraction) (in sec-butanol, 308.2 K): 0.00135
solubility (mole fraction) (in sec-butanol, 313.2 K): 0.00173
solubility (mole fraction) (in sec-butanol, 318.2 K): 0.00221
solubility (mole fraction) (in transcutol, 298.2 K): 0.00179
solubility (mole fraction) (in transcutol, 303.2 K): 0.00231
solubility (mole fraction) (in transcutol, 308.2 K): 0.00315
solubility (mole fraction) (in transcutol, 313.2 K): 0.0042
solubility (mole fraction) (in transcutol, 318.2 K): 0.00545
solubility (mole fraction) (in water, 298.2 K): 2.27e-07
solubility (mole fraction) (in water, 303.2 K): 3.4e-07
solubility (mole fraction) (in water, 308.2 K): 4.82e-07
solubility (mole fraction) (in water, 313.2 K): 6.52e-07
solubility (mole fraction) (in water, 318.2 K): 8.5e-07
